Earlier results on three compounds are cited in patent publication US20110223150A1, “Neutraceutical-Based Topical Anxiolytic Agent and Method of Use” (priority 2009, published 2011).

Where two headings read alike, the source gives them in different places. Bounds are passed on as bounds.

Data set [1] deals with spontaneously hypertensive rats (SHR). The note with it: dose-dependent.
Data set [2] concerns rats. The conditions noted are these: chronic administration of 50 mg/kg.
The test system of data set [3] is rats.
Another data set concerns mice. The conditions noted are these: i.p. in mice.

Take `NC(=O)CC[C@H](N)C(=O)O` [L-glutamine]: the blood pressure effect entry in data set [1] is on record as “did not exhibit an anti-hypertensive effect”.

One may read the LD50 as the dose at which mortality reaches 50%. As for `NCC(CC(=O)O)c1ccccc1` (stereo not drawn) [Phenibut, beta-phenyl-gamma-aminobutyric acid], the teratogenic effects result in the data set with rats [2] is reported as “did not have teratogenic effects”. Also, the LD50 is 700 mg/kg in the data set with rats [3] (i.p. in rats); 1000 mg/kg in the data set on rats [3] (rats, method of administration not given); 900 mg/kg in the data set on mice.

As to “gamma-ethylamino-L-glutamic acid [L-theanine]”, the blood pressure effect result in data set [1] is “blood pressure lowering effect”. Further, in the data set on alpha brain waves (50 or 200 mg of L-theanine), the “time until alpha waves were observed (occipital and parietal regions)” value was at most 40 min. The “time to sense of relaxation after ingestion” value in the data set with alpha brain waves (after ingestion) is 30 to 40 min. In addition, the “time after which intensity of alpha waves was detectable” value with alpha brain waves (separate study, dose dependent, 200 mg significant over controls) was 30 min.
